ChEMBL document CHEMBL1151561, “Benzopyran sulfoxide derivatives as New potassium channel activator” (Bioorg Med Chem Lett, 1993)

Species: Canis familiaris
Assay: The compound was tested for its relaxation activity on smooth muscle of canine mesenteric artery
Format: functional
Conditions: Canis lupus familiaris

First: CC1(C)C=C(C2CCC[S+]2[O-])c2cc([N+](=O)[O-])ccc2O1 (stereo not given)
Second: CC1(C)C[C@](O)(C2CCC[S+]2[O-])c2cc([N+](=O)[O-])ccc2O1 (stereo not given in full)
The EC50 of the first is 6.2-fold lower: 1960 nM for the first, 12200 nM for the second.

Going from `CC1(C)C=C(c2cccc[n+]2[O-])c2cc([N+](=O)[O-])ccc2O1` to `CC1(C)C=C(c2cccc[n+]2[O-])c2cc(C#N)ccc2O1`, the EC50 rises from 61.8 nM to 222 nM (3.6-fold). The first is the more potent here.

Work on `CC1(C)Oc2ccc(C#N)cc2[C@@H](N2CCCC2=O)[C@@H]1O` [CROMAKALIM] yielded an EC50 of 1960 nM.
